The values that follow come from US5922697A, “Compounds, compositions and methods for inhibiting the binding of proteins containing an SH2 domain to cognate phosphorylated proteins” (Warner-Lambert Company, priority 1998, dated 1999).

Square brackets hold non-standard residues; d marks the D form. Peptide text beside a SMILES is read from it. * marks the point of attachment. pY = N[C@@H](Cc1ccc(OP(=O)(O)O)cc1)C(=O)O; NHPhenethyl = c1ccc(CCN*)cc1

For one experiment, the target named is T1, Src SH2 (Homo sapiens, UniProt P12931).
T1 construct: glutathione-S-transferase(GST)-Src SH2 fusion protein
T1 sequence (P12931 151-248 limits assumed): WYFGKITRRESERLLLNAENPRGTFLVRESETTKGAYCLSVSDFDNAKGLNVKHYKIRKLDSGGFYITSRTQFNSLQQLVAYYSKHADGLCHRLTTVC
The experiment in a line: Inhibition of 125I-phosphopeptide binding to immobilized Src SH2. The conditions noted are these: IC50, SRC SH2 Binding, competitive 125I-phosphopeptide displacement, GST-Src SH2 fusion protein, pH 7.5, room temperature, 20 minutes. On the procedure:
The binding affinities of compounds of the present invention to Src SH2 was determined using a competitive radiolabeled phosphopeptide displacement assay.
Binding was performed at room temperature for 20 minutes while continuously inverting the plate. […] Results are expressed as IC50 values in Table 1 below.
As to `CC(=O)N[C@@H](Cc1ccc(OP(=O)(O)O)cc1)C(=O)N[C@@H](CCC(=O)O)C(=O)NCCCCC(C)C` (relative stereo) [Example 37, [S -(R*,R*)]-4-[2-Acetylamino-3-(4-phosphonooxy-phenyl)-propionylamino]-4-(5-methyl-hexylcarbamoyl)-butyric acid], the half-inhibitory concentration (IC50) (in general, the midpoint of a concentration-inhibition curve) came out at 6.7 µM. As for `CC(=O)N[C@@H](Cc1ccc(OP(=O)(O)O)cc1)C(=O)N[C@@H](CCC(=O)O)C(=O)N[C@@H](C)CC1CCCCC1` [Example 2, 4-[(S)-2-Acetylamino-3-(4-phosphonooxy-phenyl)-(S)-propionylamino]-4-(2-cyclohexyl-(S)-1-methylethylcarbamoyl)-butyric acid], the half-maximal inhibitory concentration (IC50) is 2.4 µM. Compound `CC(=O)N[C@@H](Cc1ccc(OP(=O)(O)O)cc1)C(=O)N[C@@H](CCC(=O)O)C(=O)N(C)[C@@H](C)CC1CCCCC1` [Example 3] came in with an IC50 of 2.3 µM.

For `CNC(=O)N[C@@H](Cc1ccc(OP(=O)(O)O)cc1)C(=O)N[C@@H](CCC(=O)O)C(=O)N(C)CCCC1CCCCC1` [Example 7, [S-(R*,R*)]-4-[(3-Cyclohexyl-propyl)-methyl-carbamoyl]-4-[2-(3-methyl-ureido)-3-(4-phosphonooxy-phenyl)-propionylamino]-butyric acid], the IC50 worked out at 2 µM.

Turning to `CCCC[C@H](NC(=O)[C@H](Cc1ccc(OP(=O)(O)O)cc1)NC(C)=O)C(=O)N(C)CCCC1CCCCC1` [Example 9, [S-(R*,R*)]-Phosphoric acid mono-[4-(2-acetylamino-2-{1-[(3-cyclohexyl-propyl)-methyl-carbamoyl]-pentylcarbamoyl}-ethyl)-phenyl] ester], the half-maximal inhibitory concentration (IC50) is 6.2 µM.

On to `CC(=O)N[C@@H](Cc1ccc(OP(=O)(O)O)cc1)C(=O)N[C@@H](CCC(=O)O)C(=O)NCCc1cccc2c1CCCC2` [Example 13, [S-(R* ,R*)]-4-[2-Acetylamino-3-(4-phosphonooxy-phenyl)-propionylamino]-4-[2-(5,6,7,8-tetrahydro-naphthalen-1-yl)-ethylcarbamoyl]-butyric acid], for which the half-inhibitory concentration (IC50) was 4.4 µM.

`CC(=O)N[C@@H](Cc1ccc(OP(=O)(O)O)cc1)C(=O)N[C@@H](CCC(=O)O)C(=O)NCc1cccc2ccccc12` [Example 15, [S-(R*,R*)]-4-[2-Acetylamino-3-(4-phosphonooxy-phenyl)-propionylamino]-4-[(naphthalen-1-ylmethyl)-carbamoyl]-butyric acid]: the IC50 is 7 µM. `CC(=O)N[C@@H](Cc1ccc(OP(=O)(O)O)cc1)C(=O)N[C@@H](CCC(=O)O)C(=O)NCCc1ccccc1` [Example 16, [S-(R*,R*)]-4-[2-Acetylamino-3-(4-phosphonooxy-phenyl)-propionylamino]-4-phenethylcarbamoyl-butyric acid] (Ac-[pY]-Glu-NHPhenethyl) showed an IC50 of 9.8 µM. On to `CC(=O)N[C@@H](Cc1ccc(OP(=O)(O)O)cc1)C(=O)N[C@@H](CCC(=O)O)C(=O)N(C)[C@@H](C)Cc1ccccc1` [Example 17, 4-[(S)-2-Acetylamino-3-(4-phosphonooxy-phenyl)-(S)-propionylamino]-4-[methyl-((S)-1-methyl-2-phenylethyl)-carbamoyl]-butyric acid], for which the concentration for half-maximal inhibition (IC50) stood at 3.2 µM. `CC(=O)N[C@@H](Cc1ccc(OP(=O)(O)O)cc1)C(=O)N[C@@H](CCC(=O)O)C(=O)N[C@@H](C)Cc1ccccc1` [Example 18, 4-[(S)-2-Acetylamino-3-(4-phosphonooxy-phenyl)-(S)-propionylamino]-4-((S)-1-methyl-2-phenylethylcarbamoyl)-butyric acid] yielded an IC50 of 3.3 µM. For `CC(=O)N[C@@H](Cc1ccc(OP(=O)(O)O)cc1)C(=O)N[C@@H](CCC(=O)O)C(=O)N(C)CCCc1ccccc1` [Example 19, [S-(R*,R*)]-4-[2-Acetylamino-3-(4-phosphonooxy-phenyl)-propionylamino]-4-[methyl-(3-phenyl-propyl)-carbamoyl]-butyric acid], the IC50 turned out to be 5.6 µM. In turn, `CC(=O)N[C@@H](Cc1ccc(OP(=O)(O)O)cc1)C(=O)N[C@@H](CCC(=O)O)C(=O)NCCc1ccc(C)cc1` [Example 22, [S-(R*,R*)]-4-[2-Acetylamino-3-(4-phosphonooxy-phenyl)-propionylamino]-4-(2-p-tolyl-ethylcarbamoyl)-butyric acid] gave a concentration for half-maximal inhibition (IC50) of 8.3 µM. The compound `COc1ccccc1CCN(C)C(=O)[C@H](CCC(=O)O)NC(=O)[C@H](Cc1ccc(OP(=O)(O)O)cc1)NC(C)=O` [Example 23, [S-(R*,R*)]-4-[2-Acetylamino-3-(4-phosphonooxy-phenyl)-propionylamino]-4-{[2-(2-methoxy-phenyl)-ethyl]-methyl-carbamoyl}-butyric acid] showed a 50% inhibitory concentration (IC50) of 6.2 µM. With `CC(=O)N[C@@H](Cc1ccc(OP(=O)(O)O)cc1)C(=O)N[C@@H](C)C(=O)N(CCCC(=O)O)CCCC1CCCCC1` [Example 25, [S-(R*,R*)]-4-[{2-[2-Acetylamino-3-(4-phosphonooxy-phenyl)-propionylamino}-propionyl]-(3-cyclohexylpropyl)-amino]-butyric acid], the IC50 came to 7.1 µM.

For the compound `CC(=O)N[C@@H](Cc1ccc(OP(=O)(O)O)cc1)C(=O)N[C@@H](C)C(=O)N(CCCC(=O)O)CCCc1ccccc1` [Example 26, [S-(R*,R*)]-4-[{2-[2-Acetylamino-3-(4-phosphonooxy-phenyl)-propionylamino}-propionyl]-(3-phenyl-propyl)-amino]-butyric acid], the IC50 worked out at 9.8 µM. `CC(=O)N[C@@H](Cc1ccc(OP(=O)(O)O)cc1)C(=O)N[C@@H](C)C(=O)N(CCCCC(=O)O)CCCc1ccccc1` [Example 27, [S-(R*,R*)]-5-[{2-[2-Acetylamino-3-(4-phosphonooxy-phenyl)-propionylamino]-propionyl}-(3-phenyl-propyl)-amino]-pentanoic acid] had an IC50 of 8 µM.

On to `CCCCN(CCCc1ccccc1)C(=O)[C@H](C)NC(=O)[C@H](Cc1ccc(OP(=O)(O)O)cc1)NC(C)=O` [Example 28, [S-(R*,R*)]-Phosphoric acid mono-[4-(2-acetylamino-2-{1-[butyl-(3-phenyl-propyl)-carbamoyl]-ethylcarbamoyl}-ethyl)-phenyl] ester], for which the IC50 was 12 µM.

`CC(=O)N[C@@H](Cc1ccc(OP(=O)(O)O)cc1)C(=O)N[C@@H](CCC(=O)O)C(=O)NCCCc1ccc(OCC(=O)O)cc1` [Example 29, [S-(R*,R*)]-4-[2-Acetylamino-3-(4-phosphonooxy-phenyl)-propionylamino]-4-[3-(4-carboxymethoxy-phenyl)-propylcarbamoyl]-butyric acid] showed an IC50 of 8.3 µM.

`CC(=O)N[C@@H](Cc1ccc(OP(=O)(O)O)cc1)C(=O)N[C@@H](CCC(=O)O)C(=O)N1CCC[C@H]1Cc1ccccc1` [Example 30] had a half-inhibitory concentration (IC50) of 5.5 µM. On to `CC(=O)N(C)C(Cc1ccc(OP(=O)(O)O)cc1)C(=O)N[C@@H](CCC(=O)O)C(=O)NCCCc1ccccc1` (stereo partly drawn) [Example 32, 4-[(RS)-2-(Acetyl-methyl-amino)-3-(4-phosphonooxy-phenyl)-(S)-propionylamino]-4-(3-phenylpropylcarbamoyl)-butyric acid], for which the IC50 was 9.2 µM. As to `CS(=O)(=O)N[C@@H](Cc1ccc(OP(=O)(O)O)cc1)C(=O)N[C@@H](CCC(=O)O)C(=O)NCCCc1ccccc1` [Example 33, [S-(R*,R*)]-4-[2-Methanesulfonylamino-3-(4-phosphonooxy-phenyl)-propionylamino]-4-(3-phenyl-propylcarbamoyl)-butyric acid], the IC50 was found to be 9.3 µM. As for `CCC(C)CCCNC(=O)[C@H](CCC(=O)O)NC(=O)[C@H](Cc1ccc(OP(=O)(O)O)cc1)NC(C)=O` (stereo partly drawn) [Example 38, [S-(R*,R*)]-4-[2-Acetylamino-3-(4-phosphonooxy-phenyl)-propionylamino]-4-(4-methyl-hexylcarbamoyl)-butyric acid], the 50% inhibitory concentration (IC50) was 4.1 µM. `NC(=O)c1cc(CNC(=O)c2ccc(OP(=O)(O)O)cc2)ccc1OCc1ccccc1` [Example 39, Phosphoric acid mono-[4-(4-benzyloxy-3-carbamoyl-benzylcarbamoyl)-phenyl] ester] displayed an IC50 of 9.7 µM.

Compound `Cc1cccc(COc2ccc(CNC(=O)c3ccc(OP(=O)(O)O)cc3)cc2C(N)=O)c1` [Example 40, Phosphoric acid mono-{4-[3-carbamoyl-4-(3-methyl-benzyloxy)-benzylcarbamoyl]-phenyl} ester] yielded an IC50 of 7 µM.

The compound `Cc1cc(C)cc(COc2ccc(CNC(=O)c3ccc(OP(=O)(O)O)cc3)cc2C(N)=O)c1` [Example 41, Phosphoric acid mono-{4-[3-carbamoyl-4-(3,5-dimethyl-benzyloxy)-benzylcarbamoyl]-phenyl} ester] came in with an IC50 of 6.6 µM.

Staying with this experiment, now noted: competitive 125I-phosphopeptide displacement, GST-Src SH2 fusion protein, pH 7.5, room temperature, 20 minutes; read-out: IC50, SRC SH2 Binding.
As to `CC(=O)N[C@@H](Cc1ccc(OP(=O)(O)O)cc1)C(=O)N[C@@H](CCC(=O)O)C(=O)NCCCc1ccccc1` [Example 14, [S-(R*,R*)]-4-[2-Acetylamino-3-(4-phosphonooxy-phenyl)-propionylamino]-4-(3-phenyl-propylcarbamoyl)-butyric acid], the IC50 came to 10 µM. With `CC(=O)N[C@@H](Cc1ccc(OP(=O)(O)O)cc1)C(=O)N[C@@H](Cc1ccc(O)cc1)C(=O)NCCCc1ccccc1` [Example 20, [S-(R*,R*)]-Phosphoric acid mono-(4-{2-acetylamino-2-[2-(4-hydroxy-phenyl)-1-(3-phenyl-propylcarbamoyl)-ethyl-carbamoyl]-ethyl}-phenyl) ester], the IC50 stood at 20 µM.

Staying with this experiment, now noted: read-out: IC50, SRC SH2 Binding; competitive 125I-phosphopeptide displacement, GST-Src SH2 fusion protein, pH 7.5, room temperature, 20 minutes.
`COc1ccccc1CCNC(=O)[C@H](CCC(=O)O)NC(=O)[C@H](Cc1ccc(OP(=O)(O)O)cc1)NC(C)=O` [Example 21, [S-(R*,R*)]4-[2-Acetylamino-3-(4-phosphonooxy-phenyl)-propionylamino]-4-[2-(2-methoxy-phenyl)-ethylcarbamoyl]-butyric acid]: the IC50 turned out to be 5.5 µM.
